Reference: patent publication EP4781984A1 (Beyang Therapeutics Co., Ltd., priority 2023, dated 2025)
Converted amounts (≈) assume the structure as drawn.

Legend:
[1] = molecular target: T1, EGFR (Homo sapiens, UniProt P00533); assay: Kinase inhibitory activity, Mobility Shift Assay (EGFR); format: biochemical
T1 construct: purchased Carna 08-115
Method: (§1) Assay for Inhibitory Activity of Compounds Against VEGFR and EGFR Kinases
(§2) This assay directly monitors the inhibitory activity of compounds on kinase phosphorylation by measuring non-phosphorylated and phosphorylated substrates in the kinase reaction using Mobility Shift Assays/IMAP™ analysis. Table 2. Reagents and Instruments
(§3) Kinase and DTT were added to 1X kinase buffer to form a 2.5X kinase solution; 10 µL of the 2.5X kinase solution was transferred to a 384-well reaction plate, and 1X kinase buffer was added to the negative control wells. The plate was incubated at room temperature for 10 minutes; FAM-labeled peptide, MgCl2, ATP, and other reagents were added to 1X kinase buffer to form a 2.5X substrate solution; 10 µL of the above 2.5X substrate solution was transferred to the 384-well reaction plate; the plate was incubated at 28°C for varying times, and then 25 µL of stop solution was added to the 384-well reaction plate to terminate the reaction. Conversion rate data were read on a CaliperEZ Reader II. […] IC50 values were fitted using XLFit excel add-in version 5.4.0.8. Y = Bottom + (Top−Bottom)/(1 + […]) [formula]
(§4) X is the log value of compound concentration, Y is the inhibition rate (% inhibition).

[2] = test system: melanin; assay: Compound binding to melanin; format: in vitro ADME; settings: cuttlefish (Sepia officinalis), melanin suspension (1 mg/mL), percentage of free drug (not bound to melanin), 2 µM compound, melanin 1 mg/mL in PBS pH 7.4, 37°C
Description: Detection of Compound Binding to Melanin
Pigmented ocular tissues contain melanin within intracellular melanosomes. Drugs bind to melanin to varying degrees, from no binding to extensive binding. Therefore, melanin binding is an important characteristic affecting ocular drug delivery and biodistribution. The ability of compounds to bind to melanin must be considered in ocular drug development.
Melanin derived from cuttlefish (Sepia officinalis) melanin was purchased from Sigma Aldrich (St Louis, MO).
First, prepare a 1 mg/mL melanin suspension in PBS (pH 7.4). As a matrix washing step, suspended particles were centrifuged at 3000 rpm for 5 minutes. The resulting pellet was resuspended in fresh PBS buffer, heated to 37°C with continuous shaking, and incubated for 1 hour. Accurately pipette 2 microliters of test compound stock solution (0.1 mM) into 98 microliters of melanin suspension (1 mg/mL), resulting in a final incubation concentration of 2 µM. Similarly, accurately pipette 2 microliters of stock solution (0.1 mM) into 98 microliters of PBS buffer (containing 0.1% BSA) as a blank control sample. Samples were incubated at 37°C for 2 hours on a shaker (80-90 rpm). Then centrifuged at room temperature. 50 microliters of supernatant was aspirated and added to 50 microliters of precipitation agent (containing internal standard). All samples above were subjected to protein precipitation, centrifuged, the supernatant was taken, diluted with water (if necessary), and then injected for analysis. Simultaneously, high-binding compounds Sunitinib and chloroquine, and the low-binding compound celecoxib were measured as positive controls. An LC-MS/MS analytical method for determining compound concentration was established. The ratio of analyte/internal standard peak areas (Aanalyte/AIS) measured in the samples, calibrated by the dilution factor, was used as the surrogate concentration for data processing. The binding rate of the compound to melanin (Fb) is calculated by the formula: Fb = 100−(Ctest)/(Ccontrol) × 100% [formula]
Ctest is the drug concentration of the compound in the melanin incubation sample or the peak area ratio of the test compound to the internal standard. Ccontrol is the drug concentration of the compound in the blank control sample or the peak area ratio of the test compound to the internal standard. Percentage of free drug (Fu%) = 100 - Fb The binding rates of the compounds of the present invention to melanin are shown in the table below: Table 11. Binding Rate of Compounds to Melanin

[3] = molecular target: T2, VEGFR2 (Homo sapiens, UniProt P35968); assay: Kinase inhibitory activity, Mobility Shift Assay (VEGFR2); format: biochemical
T2 construct: purchased Carna 08-191
T2 sequence (P35968 20-1356): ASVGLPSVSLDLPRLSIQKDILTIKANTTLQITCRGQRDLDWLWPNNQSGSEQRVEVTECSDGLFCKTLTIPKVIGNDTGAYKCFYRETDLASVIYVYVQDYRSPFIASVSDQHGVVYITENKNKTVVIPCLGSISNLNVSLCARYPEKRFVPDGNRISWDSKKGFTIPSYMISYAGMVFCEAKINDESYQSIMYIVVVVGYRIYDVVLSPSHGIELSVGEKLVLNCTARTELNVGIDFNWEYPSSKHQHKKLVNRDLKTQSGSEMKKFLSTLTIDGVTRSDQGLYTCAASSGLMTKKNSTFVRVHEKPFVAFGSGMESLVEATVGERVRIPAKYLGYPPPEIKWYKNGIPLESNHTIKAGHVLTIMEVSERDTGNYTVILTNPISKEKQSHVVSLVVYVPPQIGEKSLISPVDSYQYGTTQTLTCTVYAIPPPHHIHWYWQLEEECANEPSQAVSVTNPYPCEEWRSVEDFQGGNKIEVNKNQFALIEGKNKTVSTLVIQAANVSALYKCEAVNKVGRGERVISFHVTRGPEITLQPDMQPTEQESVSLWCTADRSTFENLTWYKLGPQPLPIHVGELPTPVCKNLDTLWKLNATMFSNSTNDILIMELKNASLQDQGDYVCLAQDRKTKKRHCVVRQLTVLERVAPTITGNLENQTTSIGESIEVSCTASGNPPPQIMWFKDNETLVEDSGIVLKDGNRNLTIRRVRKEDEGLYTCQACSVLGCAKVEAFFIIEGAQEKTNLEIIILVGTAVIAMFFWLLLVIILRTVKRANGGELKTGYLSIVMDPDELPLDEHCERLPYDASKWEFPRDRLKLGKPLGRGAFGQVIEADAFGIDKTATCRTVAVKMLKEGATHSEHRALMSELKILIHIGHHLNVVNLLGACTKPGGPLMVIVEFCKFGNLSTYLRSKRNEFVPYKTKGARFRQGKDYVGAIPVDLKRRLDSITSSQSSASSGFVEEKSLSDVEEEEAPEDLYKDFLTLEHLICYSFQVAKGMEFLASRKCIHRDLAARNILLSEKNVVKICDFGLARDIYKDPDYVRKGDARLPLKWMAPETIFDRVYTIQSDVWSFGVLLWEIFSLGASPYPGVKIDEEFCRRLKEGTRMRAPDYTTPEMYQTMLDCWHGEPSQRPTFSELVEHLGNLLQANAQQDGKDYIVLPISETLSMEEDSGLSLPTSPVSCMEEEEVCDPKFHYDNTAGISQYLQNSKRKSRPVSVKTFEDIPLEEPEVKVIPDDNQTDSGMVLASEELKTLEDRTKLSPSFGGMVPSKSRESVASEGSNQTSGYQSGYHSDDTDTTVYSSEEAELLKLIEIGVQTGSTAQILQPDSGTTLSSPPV
Method: as §1, §2, §3, §4

[4] = Thermodynamic solubility test; format: physicochemical; settings: buffer solution, aqueous buffer, thermodynamic from solid; thermodynamic solubility, room temperature, 8 hours shaking; buffers pH 2.0, 6.5, 7.4 used, pH of the tabulated value not given
Method: Solubility Test of Compounds
Table 9. Reagents and Instruments
After sonication for 10 minutes, they were fixed on a shaker and shaken at room temperature for 8 hours. After shaking, they were sonicated for 10 minutes and centrifuged at 13000 rpm for 15 minutes. 0.1 mL of supernatant was aspirated into a new tube, rinsed with 5 mL of buffer by shaking, and the liquid was discarded. 0.5 mL of supernatant was transferred again to a new tube, centrifuged at 13000 rpm for 15 minutes, and the supernatant was taken (diluted with water if necessary) for LC-MS injection analysis. Sample concentrations were quantified using a 3-5 point calibration curve.

T1 sequence (P00533 25-1210): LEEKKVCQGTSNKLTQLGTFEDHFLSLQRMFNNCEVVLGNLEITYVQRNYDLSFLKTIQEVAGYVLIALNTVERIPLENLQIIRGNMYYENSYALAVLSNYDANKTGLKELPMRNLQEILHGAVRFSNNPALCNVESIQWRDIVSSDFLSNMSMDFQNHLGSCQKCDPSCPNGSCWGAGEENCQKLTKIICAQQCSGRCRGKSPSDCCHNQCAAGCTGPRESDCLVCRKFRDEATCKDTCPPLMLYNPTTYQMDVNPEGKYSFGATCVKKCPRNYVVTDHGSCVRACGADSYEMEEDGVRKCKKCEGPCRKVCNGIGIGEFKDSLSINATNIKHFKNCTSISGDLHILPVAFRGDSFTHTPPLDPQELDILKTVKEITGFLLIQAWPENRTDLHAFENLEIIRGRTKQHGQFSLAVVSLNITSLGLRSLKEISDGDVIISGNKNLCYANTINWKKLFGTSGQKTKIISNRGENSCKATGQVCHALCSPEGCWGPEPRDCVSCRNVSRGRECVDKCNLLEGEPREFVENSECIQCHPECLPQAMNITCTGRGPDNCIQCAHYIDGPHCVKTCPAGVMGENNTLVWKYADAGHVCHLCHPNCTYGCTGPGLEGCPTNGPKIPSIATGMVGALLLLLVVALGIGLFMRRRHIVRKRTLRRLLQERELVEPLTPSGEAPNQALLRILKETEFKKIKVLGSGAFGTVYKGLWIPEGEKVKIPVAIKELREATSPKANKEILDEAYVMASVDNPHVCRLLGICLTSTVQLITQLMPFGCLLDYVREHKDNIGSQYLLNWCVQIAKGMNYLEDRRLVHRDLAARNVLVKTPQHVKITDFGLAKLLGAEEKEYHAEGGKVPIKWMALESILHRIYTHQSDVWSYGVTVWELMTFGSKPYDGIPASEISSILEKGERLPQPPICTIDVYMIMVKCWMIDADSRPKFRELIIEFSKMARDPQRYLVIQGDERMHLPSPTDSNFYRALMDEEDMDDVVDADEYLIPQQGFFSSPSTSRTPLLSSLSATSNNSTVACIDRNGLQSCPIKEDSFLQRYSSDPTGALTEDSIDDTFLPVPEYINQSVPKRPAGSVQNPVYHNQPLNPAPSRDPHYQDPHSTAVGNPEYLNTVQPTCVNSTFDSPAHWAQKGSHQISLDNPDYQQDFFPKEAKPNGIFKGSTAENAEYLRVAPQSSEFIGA

SMILES	IC50 [1]	fraction unbound at 2 h, 2 µM [2]	IC50 [3]	solubility at 8 h [4]
CNC(=O)c1cc(F)ccc1Sc1ccc2c(/C=C/c3cnn(CCCN4CCCC4)c3)n[nH]c2c1 [Compound I-106]	6 to 60 µM	> 0.05	–	–
CCNC(=O)c1ccc(F)cc1Sc1ccc2c(/C=C/c3cnn(CCCN4CCCC4)c3)n[nH]c2c1 [Compound I-103, N-ethyl-4-fluoro-2-({3-[(E)-2-{1-[3-(pyrrolidin-1-yl)propyl]-1H-pyrazol-4-yl}ethenyl]-1H-indazol-6-yl}sulfanyl)benzamide]	–	–	≤ 0.001 µM	–
CCN(CC)CCc1ccc(/C=C/c2n[nH]c3cc(Sc4cc(F)ccc4C(=O)NC4CC4)ccc23)nc1 [Compound I-108]	–	–	≤ 0.001 µM	–
O=C(NC1CC1)c1cc(F)ccc1Sc1ccc2c(/C=C/c3cnn(CCCN4CCCC4)c3)n[nH]c2c1 [Compound I-46]	–	–	≤ 0.001 µM	–
CNC(=O)c1ccccc1Sc1ccc2c(/C=C/c3cncc(OCCN4CCCC4)c3)n[nH]c2c1 [Compound I-22]	> 60 µM	0.01 to 0.05	–	57.4 µg/mL (≈ 115 µM)
CCNC(=O)c1cccc(F)c1Sc1ccc2c(/C=C/c3cccc(CN4CCCC4)n3)n[nH]c2c1 [Compound I-113, N-ethyl-3-fluoro-2-({3-[(E)-2-{6-[(pyrrolidin-1-yl)methyl]pyridin-2-yl}ethenyl]-1H-indazol-6-yl}sulfanyl)benzamide]	–	–	> 0.1 µM	–
CN1CCC(CCOc2ccc(/C=C/c3n[nH]c4cc(Sc5ccccc5C(=O)NC5CC5)ccc34)nc2)CC1 [Compound I-42]	> 60 µM	0.01 to 0.05	–	–
O=C(NC1CC1)c1ccccc1Sc1ccc2c(/C=C/c3cccc(CN4CCCC4)n3)n[nH]c2c1 [Compound I-117]	> 60 µM	0.01 to 0.05	–	–
CNC(=O)c1ccccc1Sc1ccc2c(/C=C/c3ccc(OCCN4CCCC4)nc3)n[nH]c2c1 [Compound I-19, N-methyl-2-((3-((E)-2-(6-(2-(pyrrolidin-1-yl)ethoxy)pyridin-3-yl)ethenyl)-1H-indazol-6-yl)thio)benzamide]	> 60 µM	0.01 to 0.05	–	–
CCNC(=O)c1cccc(F)c1Sc1ccc2c(/C=C/c3cc(CCCN4CCCC4)ccn3)n[nH]c2c1 [Compound I-116, N-ethyl-3-fluoro-2-({3-[(E)-2-{4-[3-(pyrrolidin-1-yl)propyl]pyridin-2-yl}ethenyl]-1H-indazol-6-yl}sulfanyl)benzamide]	> 60 µM	0.01 to 0.05	–	–

Next, values leading:

IC50 [1]	fraction unbound at 2 h, 2 µM [2]	IC50 [3]	solubility at 8 h [4]	SMILES
> 60 µM	–	–	–	O=C(NC1CC1)c1cc(F)ccc1Sc1ccc2c(/C=C/c3cccc(CN4CCCC4)n3)n[nH]c2c1 [Compound I-138]
> 60 µM	–	–	–	O=C(NC1CC1)c1cc(F)ccc1Sc1ccc2c(/C=C/c3cc(CN4CCCC4)ccn3)n[nH]c2c1 [Compound I-137]
> 60 µM	–	–	–	O=C(NC1CC1)c1ccccc1Sc1ccc2c(/C=C/c3cc(CCN4CCCC4)ccn3)n[nH]c2c1 [Compound I-133, N-cyclopropyl-2-((3-((E)-2-(4-(2-(pyrrolidin-1-yl)ethyl)pyridin-2-yl)ethenyl)-1H-indazol-6-yl)thio)benzamide]
> 60 µM	–	–	–	CCNC(=O)c1cccc(F)c1Sc1ccc2c(/C=C/c3cccc(CCN4CCCC4)n3)n[nH]c2c1 [Compound I-129]
> 60 µM	–	–	–	CCNC(=O)c1cc(F)ccc1Sc1ccc2c(/C=C/c3cc(CCCN4CCCC4)ccn3)n[nH]c2c1 [Compound I-122]
> 60 µM	–	–	–	O=C(NC1CC1)c1cc(F)ccc1Sc1ccc2c(/C=C/c3cc(CCN4CCCC4)ccn3)n[nH]c2c1 [Compound I-135]
> 60 µM	≤ 0.01	–	–	O=C(NC1CC1)c1cc(F)ccc1Sc1ccc2c(/C=C/c3cc(OCCN4CCCC4)ccn3)n[nH]c2c1 [Compound I-118]
> 60 µM	–	–	–	O=C(NC1CC1)c1cccc(F)c1Sc1ccc2c(/C=C/c3cc(CCCN4CCCC4)ccn3)n[nH]c2c1 [Compound I-123]
> 60 µM	–	–	–	O=C(NC1CC1)c1cc(F)ccc1Sc1ccc2c(/C=C/c3cccc(CCN4CCCC4)n3)n[nH]c2c1 [Compound I-136]
> 60 µM	–	–	–	O=C(NC1CC1)c1ccccc1Sc1ccc2c(C#Cc3ccc(OCCN4CCCC4)cn3)n[nH]c2c1 [Compound I-139]
